Assay results as given in patent US20250295664A1, “THERAPEUTIC COMBINATION OF KRAS G12C INHIBITOR AND TEAD INHIBITOR” (SANOFI, priority 2022, published 2025).

Key:
Assay type in all cases: cell-based
[1] = test system: KRAS G12C mutant NSCLC cell line HOP-62; assay: IC50 shift experiment, cell proliferation (Cell Titer Glo), 144 h; conditions: for IC50: Homo sapiens, TEAD inhibitor alone, 144 h, read-out: IC50 TEADi; for KRAS G12Ci No1 fold change vs 0.1 μM: IC50 shift of KRAS G12C inhibitor N°1, no TEADi vs TEAD inhibitor 0.1 μM; for KRAS G12Ci No1 fold change vs 1 μM: IC50 shift of KRAS G12C inhibitor N°1, no TEADi vs TEAD inhibitor 1 μM; for KRAS G12Ci No2 fold change vs 0.1 μM: IC50 shift of KRAS G12C inhibitor N°2, no TEADi vs TEAD inhibitor 0.1 μM; for KRAS G12Ci No2 fold change vs 1 μM: IC50 shift of KRAS G12C inhibitor N°2, no TEADi vs TEAD inhibitor 1 μM
Description: The KRAS G12C mutant NSCLC cell line HOP-62 was used for this study. Cells were seeded in 96 well plates at 1250 cells per well and incubated 24 hours at 37° C. and 5% CO2. The KRAS G12C inhibitors N°1 and N°2 were used at 10 concentrations and combined with TEAD inhibitors used at 2 concentrations. Compound dilution and distribution to cells was performed on the TECAN MCA384 robotic platform. […] Cell proliferation was measured using Cell Titer Glo from PROMEGA (luminescence). For each KRAS G12C inhibitor, IC50 values in these cell lines were determined in the absence or presence of TEAD inhibitors.

[2] = test system: H-2030 KRAS G12C mutant NSCLC cells; assay: Ray design combination experiment, cell proliferation (Cell Titer Glo), 144 h; conditions: potentiation of KRAS G12C inhibitor N°1 IC50 by the TEAD inhibitor at 41 nM, Ki = potentiation index IC50ai/IC50a
Description: (§1) The NSCLC cell line H-2030 which carries a KRASG12C mutation was used for this study. H-2030 cells were seeded in 384 well plates at 250 cells per well and incubated 24 hours at 37° C. and 5% CO2. The KRAS G12C inhibitor N°1 used at 14 concentrations ranging from 10,000 nM to 0.006 nM was combined with TEAD inhibitors used at 18 concentrations ranging from 10,000 nM to 0.0001 nM, added to H-2030 cells and incubated for 144 hours at 37° C. and 5% CO2. Compound dilution and distribution to cells was performed on the TECAN MCA384 robotic platform. Cell proliferation was measured using Cell Titer Glo from PROMEGA (luminescence).
(§2) Three independent experiments with triplicates/experiment were performed and analyzed using the combination analysis software Combo2Screen. TEAD inhibitors were defined as non-active in this cell line, their effect on the KRAS G12C inhibitor was determined as an effect of potentiation and was quantified using the potentiation index based on the following equation: […]

[3] = test system: HOP-62 KRAS G12C mutant NSCLC cells; assay: Ray design combination experiment, cell proliferation (Cell Titer Glo), 96 h; conditions: potentiation of KRAS G12C inhibitor N°1 IC50 by the TEAD inhibitor at 370 nM, Ki = potentiation index IC50ai/IC50a
Description: as §1, with “line HOP62” for “line H-2030”, “study. HO-P62” for “study. H-2030”, “at 300” for “at 250”, “to HOP-62” for “to H-2030”, “for 96” for “for 144”
as §2, with “triplicates per experiment” for “triplicates/experiment”

Structure (SMILES) | IC50 [1] [µM] | KRAS G12Ci No1 fold change vs 0.1 μM [1] [fold] | KRAS G12Ci No1 fold change vs 1 μM [1] [fold] | KRAS G12Ci No2 fold change vs 0.1 μM [1] [fold] | KRAS G12Ci No2 fold change vs 1 μM [1] [fold] | Mean fold potentiation 1/Ki [2] [fold] | Mean fold potentiation 1/Ki [3] [fold]
C=CC(=O)Nc1ccc2c(c1)C(O[C@H]1CC[C@H](C(F)(F)F)CC1)CC2 (relative stereo) [TEAD inhibitor N°6, N-(3-(((trans)-4-(trifluoromethyl)cyclohexyl)oxy)-2,3-dihydro-1H-inden-5-yl) acrylamide] | > 10 | 4 | 6 | 6 | 8 |  | 
C=CC(=O)Nc1ccc(C)c(Oc2ccc(Cl)cc2)c1 [TEAD inhibitor N°1, N-(3-(4-chlorophenoxy)-4-methylphenyl) acrylamide, reference compound] | 8.8 | 8 | 9 |  |  | 33 | 8
C=CC(=O)Nc1ccc2c(c1)CCC2Nc1cccc(C(F)(F)F)c1 (stereo not shown) [TEAD inhibitor N°2, N-(1-((3-(trifluoromethyl)phenyl)amino)-2,3-dihydro-1H-inden-5-yl) acrylamide] |  |  |  |  |  | 18 | 8
C=CC(=O)Nc1ccc2c(ccn2-c2ccc(C(F)(F)F)cc2)c1 [TEAD inhibitor N°3, N-(1-(4-(trifluoromethyl)phenyl)-1H-indol-5-yl) acrylamide] | > 10 | 6 | 7 | 9 | 8 |  | 
C=CC(=O)Nc1ccc2c(c1)c(COC)cn2-c1ccc(C(F)(F)F)cc1 [TEAD inhibitor N°4, N-(3-(methoxymethyl)-1-(4-(trifluoromethyl)phenyl)-1H-indol-5-yl) acrylamide] | > 10 | 5 | 10 | 8 | 12 |  | 
C=CC(=O)Nc1ccc2c(c1)c(C)cn2Cc1cccc(C(F)(F)F)c1 [TEAD inhibitor N°5, N-(3-methyl-1-(3-(trifluoromethyl)benzyl)-1H-indol-5-yl) acrylamide] | > 10 | 4 | 7 | 8 | 13 |  | 
C=CC(=O)Nc1ccc2c(c1)C(Nc1ccc(F)c(F)c1)CC2 (stereo not shown) [TEAD inhibitor N°7, N-(3-((3,4-difluorophenyl)amino)-2,3-dihydro-1H-inden-5-yl) acrylamide] | > 10 | 6 | 13 | 9 | 21 |  | 
C=CC(=O)Nc1ccc2c(c1)C(Oc1ccc(C(F)(F)F)cc1)CC2 (stereo not shown) [TEAD inhibitor N°8, N-(3-(4-(trifluoromethyl)phenoxy)-2,3-dihydro-1H-inden-5-yl) acrylamide] | > 10 | 6 | 9 | 10 | 12 |  | 
